Earlier results, collected in patent US6352152B1, “Method and package for storing a pressurized container containing a drug” (Smithkline Beecham Corporation, priority 1998, dated 2002).

conditions: Pischtiak 1999, Solvay chemical data sheet

Row | SMILES | maximum water solubility in the propellant
1 | FC(F)(Cl)Cl [CFC 12] | about 130 ppm
2 | FC(F)(Cl)C(F)(F)Cl [CFC 114] | about 130 ppm
3 | FCC(F)(F)F [HFC 134a, 1,1,1,2-tetrafluoroethane] | about 2200 ppm
